Results as given in ChEMBL document CHEMBL3132769, “Fragment growing to retain or alter the selectivity of anchored kinase hinge-binding fragments” (Medchemcomm, 2014).

Tests used:
[1] = target: Glycogen synthase kinase-3 beta (Homo sapiens) (UniProt P49841); assay: Inhibition of human full length GSK-3 beta expressed in baculovirus assessed as substrate phosphorylation using fluorescence-labelled peptides as substrate at 0.06 uM after 90 mins by microfluidic peptide phosphorylation assay
[2] = target: Calcium/calmodulin-dependent protein kinase type II subunit delta (Homo sapiens) (UniProt Q13557); assay: Inhibition of human full length CAMK2D expressed in baculovirus assessed as substrate phosphorylation using fluorescence-labelled peptides as substrate at 420 uM after 90 mins by microfluidic peptide phosphorylation assay
[3] = target: Serine/threonine-protein kinase MARK1 (Homo sapiens) (UniProt Q9P0L2); assay: Inhibition of human full length MARK1 expressed in baculovirus assessed as substrate phosphorylation using fluorescence-labelled peptides as substrate at 420 uM after 90 mins by microfluidic peptide phosphorylation assay
[4] = target: Ribosomal protein S6 kinase alpha-3 (Homo sapiens) (UniProt P51812); assay: Inhibition of human full length RSK2 expressed in baculovirus assessed as substrate phosphorylation using fluorescence-labelled peptides as substrate at 420 uM after 90 mins by microfluidic peptide phosphorylation assay
[5] = target: T1, Serine/threonine-protein kinase Nek2 (Homo sapiens) (UniProt P51955); assay: Inhibition of human full length NEK2 expressed in baculovirus assessed as substrate phosphorylation using fluorescence-labelled peptides as substrate at 0.1 uM after 90 mins by microfluidic peptide phosphorylation assay
T1 sequence (whole entry): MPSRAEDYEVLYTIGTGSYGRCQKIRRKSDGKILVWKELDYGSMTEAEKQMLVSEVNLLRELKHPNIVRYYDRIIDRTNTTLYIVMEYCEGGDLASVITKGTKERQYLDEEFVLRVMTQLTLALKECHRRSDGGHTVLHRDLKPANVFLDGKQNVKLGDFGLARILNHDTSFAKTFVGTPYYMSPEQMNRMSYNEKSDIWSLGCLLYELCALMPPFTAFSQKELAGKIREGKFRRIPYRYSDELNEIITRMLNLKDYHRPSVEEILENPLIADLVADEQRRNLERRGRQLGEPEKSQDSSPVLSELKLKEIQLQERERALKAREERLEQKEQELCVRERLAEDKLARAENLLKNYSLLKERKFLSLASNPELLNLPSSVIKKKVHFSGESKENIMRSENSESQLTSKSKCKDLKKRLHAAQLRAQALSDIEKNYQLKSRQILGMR

Homo sapiens = species: Homo sapiens; assay: Inhibition of human full length PKA expressed in baculovirus assessed as substrate phosphorylation using fluorescence-labelled peptides as substrate at 9 uM after 90 mins by microfluidic peptide phosphorylation assay
[6] = target: Calcium/calmodulin-dependent protein kinase type II subunit delta (Homo sapiens) (UniProt Q13557); assay: Inhibition of human full length CAMK2D expressed in baculovirus assessed as substrate phosphorylation using fluorescence-labelled peptides as substrate at 9 uM after 90 mins by microfluidic peptide phosphorylation assay
[7] = target: Fibroblast growth factor receptor 2 (Homo sapiens) (UniProt P21802); assay: Inhibition of human FGFR2 catalytic domain expressed in baculovirus assessed as substrate phosphorylation using fluorescence-labelled peptides as substrate at 9 uM after 90 mins by microfluidic peptide phosphorylation assay
[8] = target: Proto-oncogene tyrosine-protein kinase Src (Homo sapiens) (UniProt P12931); assay: Inhibition of human full length SRC expressed in baculovirus assessed as substrate phosphorylation using fluorescence-labelled peptides as substrate at 70 uM after 90 mins by microfluidic peptide phosphorylation assay
[9] = target: T2, Protein kinase C epsilon type (Homo sapiens) (UniProt Q02156); assay: Inhibition of human truncated PKC epsilon expressed in baculovirus assessed as substrate phosphorylation using fluorescence-labelled peptides as substrate at 70 uM after 90 mins by microfluidic peptide phosphorylation assay
T2 sequence (whole entry): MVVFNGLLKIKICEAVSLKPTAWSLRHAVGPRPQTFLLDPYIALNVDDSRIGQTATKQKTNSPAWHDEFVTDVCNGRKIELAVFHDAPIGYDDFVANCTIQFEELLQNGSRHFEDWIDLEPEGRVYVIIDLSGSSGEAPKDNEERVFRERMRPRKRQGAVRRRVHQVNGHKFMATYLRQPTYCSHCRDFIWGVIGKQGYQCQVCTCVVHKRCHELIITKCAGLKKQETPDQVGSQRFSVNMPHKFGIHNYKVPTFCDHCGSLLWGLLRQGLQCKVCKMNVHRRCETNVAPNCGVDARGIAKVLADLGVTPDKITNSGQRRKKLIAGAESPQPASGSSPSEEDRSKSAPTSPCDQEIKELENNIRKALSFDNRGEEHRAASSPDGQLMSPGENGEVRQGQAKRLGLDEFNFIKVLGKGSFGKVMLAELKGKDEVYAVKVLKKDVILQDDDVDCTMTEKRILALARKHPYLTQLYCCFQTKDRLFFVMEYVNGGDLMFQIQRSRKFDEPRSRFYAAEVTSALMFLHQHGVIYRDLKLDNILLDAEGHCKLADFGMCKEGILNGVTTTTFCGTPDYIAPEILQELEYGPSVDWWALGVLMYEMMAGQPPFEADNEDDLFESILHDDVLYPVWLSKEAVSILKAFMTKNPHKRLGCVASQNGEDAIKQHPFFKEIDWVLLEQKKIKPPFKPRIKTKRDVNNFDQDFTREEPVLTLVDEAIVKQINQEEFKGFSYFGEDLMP

[10] = target: T1, Serine/threonine-protein kinase Nek2 (Homo sapiens); assay: Inhibition of human full length NEK2 expressed in baculovirus assessed as substrate phosphorylation using fluorescence-labelled peptides as substrate at 70 uM after 90 mins by microfluidic peptide phosphorylation assay
[11] = target: T3, Serine/threonine-protein kinase Chk1 (Homo sapiens) (UniProt O14757); assay: Inhibition of human full length CHK1 expressed in baculovirus assessed as substrate phosphorylation using fluorescence-labelled peptides as substrate at 70 uM after 90 mins by microfluidic peptide phosphorylation assay
T3 sequence (whole entry): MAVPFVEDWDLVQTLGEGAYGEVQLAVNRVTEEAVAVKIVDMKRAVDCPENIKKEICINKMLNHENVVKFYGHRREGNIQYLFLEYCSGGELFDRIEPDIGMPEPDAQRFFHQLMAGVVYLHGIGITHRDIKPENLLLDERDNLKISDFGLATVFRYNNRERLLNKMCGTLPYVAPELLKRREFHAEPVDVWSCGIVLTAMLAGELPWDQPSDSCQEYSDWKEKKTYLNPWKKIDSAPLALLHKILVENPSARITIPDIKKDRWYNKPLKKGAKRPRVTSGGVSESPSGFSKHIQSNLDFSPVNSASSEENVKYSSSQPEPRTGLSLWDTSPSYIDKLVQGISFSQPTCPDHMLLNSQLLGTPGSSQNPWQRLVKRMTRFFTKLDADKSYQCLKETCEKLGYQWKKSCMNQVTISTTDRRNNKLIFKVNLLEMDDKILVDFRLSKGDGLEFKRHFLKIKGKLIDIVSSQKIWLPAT

[12] = target: Tyrosine-protein kinase Lck (Homo sapiens) (UniProt P06239); assay: Inhibition of human full length LCK expressed in baculovirus assessed as substrate phosphorylation using fluorescence-labelled peptides as substrate at 1000 uM after 90 mins by microfluidic peptide phosphorylation assay
[13] = target: Epidermal growth factor receptor (Homo sapiens) (UniProt P00533); assay: Inhibition of human EGFR catalytic domain expressed in baculovirus assessed as substrate phosphorylation using fluorescence-labelled peptides as substrate at 2 uM after 90 mins by microfluidic peptide phosphorylation assay
Chain of Epidermal growth factor receptor (Homo sapiens) (P00533 whole entry, the tested form may be a part): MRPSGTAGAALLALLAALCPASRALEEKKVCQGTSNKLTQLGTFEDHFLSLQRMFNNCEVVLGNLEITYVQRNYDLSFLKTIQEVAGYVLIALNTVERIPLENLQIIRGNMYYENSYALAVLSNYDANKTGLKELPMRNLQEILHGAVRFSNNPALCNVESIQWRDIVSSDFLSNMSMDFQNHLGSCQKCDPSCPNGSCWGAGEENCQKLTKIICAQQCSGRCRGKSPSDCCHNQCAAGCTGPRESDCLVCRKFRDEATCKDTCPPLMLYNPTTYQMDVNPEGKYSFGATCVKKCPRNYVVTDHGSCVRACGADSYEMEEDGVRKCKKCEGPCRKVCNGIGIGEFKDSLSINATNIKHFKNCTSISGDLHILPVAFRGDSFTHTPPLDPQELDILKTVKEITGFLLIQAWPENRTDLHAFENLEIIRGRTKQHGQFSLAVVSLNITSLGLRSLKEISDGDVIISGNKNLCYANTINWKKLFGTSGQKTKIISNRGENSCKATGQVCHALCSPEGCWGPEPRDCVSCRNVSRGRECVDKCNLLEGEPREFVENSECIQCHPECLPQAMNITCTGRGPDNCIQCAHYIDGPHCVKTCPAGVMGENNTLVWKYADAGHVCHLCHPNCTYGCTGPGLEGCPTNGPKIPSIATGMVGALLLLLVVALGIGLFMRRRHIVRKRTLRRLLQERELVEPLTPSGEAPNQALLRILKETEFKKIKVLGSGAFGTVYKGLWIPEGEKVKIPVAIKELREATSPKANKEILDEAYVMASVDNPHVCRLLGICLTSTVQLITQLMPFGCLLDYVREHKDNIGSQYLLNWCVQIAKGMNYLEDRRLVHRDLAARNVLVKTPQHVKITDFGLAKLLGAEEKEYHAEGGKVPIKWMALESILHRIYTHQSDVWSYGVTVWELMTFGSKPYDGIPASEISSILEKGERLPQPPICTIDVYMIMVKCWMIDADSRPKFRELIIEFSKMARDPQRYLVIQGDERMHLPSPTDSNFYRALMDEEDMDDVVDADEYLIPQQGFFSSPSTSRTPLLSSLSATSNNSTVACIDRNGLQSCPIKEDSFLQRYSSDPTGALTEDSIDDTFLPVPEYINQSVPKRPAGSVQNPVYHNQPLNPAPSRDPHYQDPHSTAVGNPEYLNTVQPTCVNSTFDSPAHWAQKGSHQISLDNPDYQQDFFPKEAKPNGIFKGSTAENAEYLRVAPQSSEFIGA

Chain of Calcium/calmodulin-dependent protein kinase type II subunit delta (Homo sapiens) (Q13557 whole entry, the tested form may be a part): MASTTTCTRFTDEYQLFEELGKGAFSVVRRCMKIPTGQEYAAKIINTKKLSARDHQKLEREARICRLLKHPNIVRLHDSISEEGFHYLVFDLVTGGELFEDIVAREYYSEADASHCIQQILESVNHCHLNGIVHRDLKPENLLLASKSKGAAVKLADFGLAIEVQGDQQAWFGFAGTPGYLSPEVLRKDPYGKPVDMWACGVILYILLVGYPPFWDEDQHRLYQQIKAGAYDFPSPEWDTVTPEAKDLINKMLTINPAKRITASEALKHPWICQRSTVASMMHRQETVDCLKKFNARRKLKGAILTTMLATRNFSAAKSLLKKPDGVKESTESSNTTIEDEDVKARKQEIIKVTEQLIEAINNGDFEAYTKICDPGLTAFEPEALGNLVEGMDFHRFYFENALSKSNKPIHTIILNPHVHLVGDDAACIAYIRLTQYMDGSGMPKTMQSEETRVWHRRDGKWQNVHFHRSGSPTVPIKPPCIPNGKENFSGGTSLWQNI
Chain of Tyrosine-protein kinase Lck (Homo sapiens) (P06239 2-509 limits assumed): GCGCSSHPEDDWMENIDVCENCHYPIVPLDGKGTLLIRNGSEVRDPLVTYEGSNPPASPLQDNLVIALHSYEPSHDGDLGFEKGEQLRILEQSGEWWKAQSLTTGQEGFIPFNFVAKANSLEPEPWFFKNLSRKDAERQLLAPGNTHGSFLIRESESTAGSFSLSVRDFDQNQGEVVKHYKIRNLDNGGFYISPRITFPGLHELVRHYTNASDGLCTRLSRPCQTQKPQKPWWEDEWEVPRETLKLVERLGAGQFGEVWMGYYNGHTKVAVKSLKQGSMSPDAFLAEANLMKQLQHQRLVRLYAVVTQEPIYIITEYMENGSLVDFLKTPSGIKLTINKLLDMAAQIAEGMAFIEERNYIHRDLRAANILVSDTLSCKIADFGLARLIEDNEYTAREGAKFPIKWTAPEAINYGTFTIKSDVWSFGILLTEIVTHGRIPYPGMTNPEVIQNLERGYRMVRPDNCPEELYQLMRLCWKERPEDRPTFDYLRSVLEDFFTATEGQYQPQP
Chain of Fibroblast growth factor receptor 2 (Homo sapiens) (P21802 22-821 limits assumed): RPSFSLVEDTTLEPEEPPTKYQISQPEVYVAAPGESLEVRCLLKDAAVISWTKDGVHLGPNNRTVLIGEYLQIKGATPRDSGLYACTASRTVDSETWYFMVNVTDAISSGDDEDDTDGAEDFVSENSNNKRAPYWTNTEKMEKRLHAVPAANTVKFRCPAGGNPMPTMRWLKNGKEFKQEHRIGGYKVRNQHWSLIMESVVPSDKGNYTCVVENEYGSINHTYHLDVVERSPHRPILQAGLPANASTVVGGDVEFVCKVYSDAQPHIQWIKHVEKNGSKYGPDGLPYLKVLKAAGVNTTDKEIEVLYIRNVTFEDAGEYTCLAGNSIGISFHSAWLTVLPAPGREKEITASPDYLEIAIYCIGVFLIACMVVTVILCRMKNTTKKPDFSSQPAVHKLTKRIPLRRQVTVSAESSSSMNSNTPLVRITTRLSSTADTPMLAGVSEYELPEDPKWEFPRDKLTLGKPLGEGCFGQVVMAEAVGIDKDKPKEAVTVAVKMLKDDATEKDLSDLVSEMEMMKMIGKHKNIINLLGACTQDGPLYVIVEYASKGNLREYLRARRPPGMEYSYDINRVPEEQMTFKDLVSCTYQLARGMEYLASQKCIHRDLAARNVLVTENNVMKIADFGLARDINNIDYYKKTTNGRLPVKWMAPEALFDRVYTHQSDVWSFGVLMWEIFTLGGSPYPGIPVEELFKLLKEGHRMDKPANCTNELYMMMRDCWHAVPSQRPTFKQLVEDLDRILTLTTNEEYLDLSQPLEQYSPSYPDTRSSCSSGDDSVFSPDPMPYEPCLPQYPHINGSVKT
Chain of Glycogen synthase kinase-3 beta (Homo sapiens) (P49841 whole entry, looked up): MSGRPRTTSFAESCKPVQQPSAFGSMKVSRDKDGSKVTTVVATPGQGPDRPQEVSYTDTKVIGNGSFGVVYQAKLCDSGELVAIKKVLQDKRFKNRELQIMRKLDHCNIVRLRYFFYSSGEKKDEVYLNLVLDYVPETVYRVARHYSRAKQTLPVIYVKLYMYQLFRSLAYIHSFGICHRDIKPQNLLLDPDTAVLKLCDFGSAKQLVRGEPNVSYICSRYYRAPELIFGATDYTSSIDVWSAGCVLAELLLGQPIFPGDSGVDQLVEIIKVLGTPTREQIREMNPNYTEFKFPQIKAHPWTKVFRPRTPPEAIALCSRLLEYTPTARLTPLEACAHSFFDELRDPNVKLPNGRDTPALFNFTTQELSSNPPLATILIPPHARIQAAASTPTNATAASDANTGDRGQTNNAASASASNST
Chain of Serine/threonine-protein kinase MARK1 (Homo sapiens) (Q9P0L2 whole entry, looked up): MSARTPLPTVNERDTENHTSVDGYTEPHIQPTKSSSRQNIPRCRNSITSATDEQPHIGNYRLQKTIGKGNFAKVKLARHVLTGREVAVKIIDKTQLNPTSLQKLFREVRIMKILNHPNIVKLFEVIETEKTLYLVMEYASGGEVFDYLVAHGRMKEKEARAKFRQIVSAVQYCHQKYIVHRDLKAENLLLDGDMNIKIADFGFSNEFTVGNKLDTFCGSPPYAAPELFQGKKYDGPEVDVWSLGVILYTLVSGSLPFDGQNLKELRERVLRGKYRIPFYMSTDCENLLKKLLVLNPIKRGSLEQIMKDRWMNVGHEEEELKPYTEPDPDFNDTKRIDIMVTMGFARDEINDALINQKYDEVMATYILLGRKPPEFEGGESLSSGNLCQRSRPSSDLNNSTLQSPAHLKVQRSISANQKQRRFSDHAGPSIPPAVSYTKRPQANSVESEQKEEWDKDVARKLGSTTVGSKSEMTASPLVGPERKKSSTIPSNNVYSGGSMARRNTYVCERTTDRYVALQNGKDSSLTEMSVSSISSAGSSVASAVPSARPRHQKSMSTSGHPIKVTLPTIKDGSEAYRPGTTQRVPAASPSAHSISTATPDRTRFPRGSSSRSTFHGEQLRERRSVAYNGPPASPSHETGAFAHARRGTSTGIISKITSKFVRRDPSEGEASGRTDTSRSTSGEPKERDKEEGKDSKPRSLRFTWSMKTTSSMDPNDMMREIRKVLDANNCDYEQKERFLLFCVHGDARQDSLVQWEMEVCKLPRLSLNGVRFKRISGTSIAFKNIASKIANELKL
Chain of Proto-oncogene tyrosine-protein kinase Src (Homo sapiens) (P12931 2-536 limits assumed): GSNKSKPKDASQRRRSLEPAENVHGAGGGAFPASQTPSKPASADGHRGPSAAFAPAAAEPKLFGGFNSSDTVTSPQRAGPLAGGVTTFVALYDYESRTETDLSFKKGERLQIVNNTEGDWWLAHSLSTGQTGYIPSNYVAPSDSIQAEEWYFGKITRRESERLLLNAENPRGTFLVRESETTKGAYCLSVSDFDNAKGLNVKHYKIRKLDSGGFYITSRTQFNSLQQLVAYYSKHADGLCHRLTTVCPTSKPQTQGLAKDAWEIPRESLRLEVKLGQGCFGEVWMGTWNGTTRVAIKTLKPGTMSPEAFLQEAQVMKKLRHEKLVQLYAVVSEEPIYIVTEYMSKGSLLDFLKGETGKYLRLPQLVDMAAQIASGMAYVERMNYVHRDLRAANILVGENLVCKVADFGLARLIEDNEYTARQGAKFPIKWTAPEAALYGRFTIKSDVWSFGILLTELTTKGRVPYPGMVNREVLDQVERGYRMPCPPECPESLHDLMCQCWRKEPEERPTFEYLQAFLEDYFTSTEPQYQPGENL

SMILES: NC1(Cc2ccc(Cl)cc2)CCN(c2ncnc3[nH]ccc23)CC1
- inhibition [1]: 0%

SMILES: c1nc(N2CCOCC2)c2nc[nH]c2n1
- inhibition [2]: 63.5%
- inhibition [3]: 4.5%
- inhibition [4]: 95%

SMILES: C[C@H](CN(C)C)Oc1nc(Nc2cc3cccc(Cl)c3cn2)cnc1C#N
- inhibition [5]: 2%

SMILES: NCC1CN(c2ncnc3[nH]c4cnccc4c23)CCO1 (centres undefined)
- inhibition (Homo sapiens): 33.5%
- inhibition [6]: 42.5%
- inhibition [7]: 30%

SMILES: CNCc1ccc(-c2ncnc3[nH]cnc23)cc1
- inhibition [8]: 37.5%
- inhibition [9]: 44%
- inhibition [10]: 15.5%
- inhibition [11]: 72%

SMILES: c1cnc2[nH]ccc2c1
- inhibition [12]: 29%

SMILES: NC1CCN(c2ncnc3[nH]ccc23)CC1
- inhibition [13]: 3.5%
